Legend:
Assay in all cases: relative viability (nuclei count vs DMSO), 5 days (fraction); higher = more cells survive
Sunitinib = compound: CCN(CC)CCNC(=O)c1c(C)[nH]c(/C=C2\C(=O)Nc3ccc(F)cc32)c1C [Sunitinib]
Summary of the method: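 Viability was read as treated-well nuclei divided by vehicle-well nuclei, using the median across plates. Lung cancer cell lines in 1536-well plates were kept overnight at 37 °C, pinned with five √10-spaced library-drug doses, and after 5 days were Hoechst-stained, imaged at 4× and counted in MetaXpress. Plates passed only with control CV below 25% and at least one doubling.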

Sunitinib + Olaparib = compound: CCN(CC)CCNC(=O)c1c(C)[nH]c(/C=C2\C(=O)Nc3ccc(F)cc32)c1C [Sunitinib] + O=C(c1cc(Cc2n[nH]c(=O)c3ccccc23)ccc1F)N1CCN(C(=O)C2CC2)CC1 [Olaparib] (partner 8 µM)
Summary of the method: (§1)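 Lung cancer cell lines were seeded in 1536-well plates and dosed by pin tool the next day, with either a single drug or a fixed anchor-drug dose combined with five library-drug doses (not always all listed) spaced in √10 steps. Five days later, one step fixed the cells and stained their nuclei (final 0.05% Triton X-100, 1% formaldehyde, 1 ug/ml Hoechst), and nuclei were counted on 4× images. Relative viability is the nuclei count in treated wells divided by the count in vehicle wells, and each value is the median of duplicate plates.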

Sunitinib + Lapatinib = compound: CCN(CC)CCNC(=O)c1c(C)[nH]c(/C=C2\C(=O)Nc3ccc(F)cc32)c1C [Sunitinib] + CS(=O)(=O)CCNCc1ccc(-c2ccc3ncnc(Nc4ccc(OCc5cccc(F)c5)c(Cl)c4)c3c2)o1 [Lapatinib] (partner 2 µM)
Summary of the method: as §1

Sunitinib + Foretinib = compound: CCN(CC)CCNC(=O)c1c(C)[nH]c(/C=C2\C(=O)Nc3ccc(F)cc32)c1C [Sunitinib] + COc1cc2c(Oc3ccc(NC(=O)C4(C(=O)Nc5ccc(F)cc5)CC4)cc3F)ccnc2cc1OCCCN1CCOCC1 [Foretinib] (partner 0.25 µM)
Summary of the method: as §1

Sunitinib + Crizotinib = compound: CCN(CC)CCNC(=O)c1c(C)[nH]c(/C=C2\C(=O)Nc3ccc(F)cc32)c1C [Sunitinib] + C[C@@H](Oc1cc(-c2cnn(C3CCNCC3)c2)cnc1N)c1c(Cl)ccc(F)c1Cl [Crizotinib] (partner 1 µM)
Summary of the method: as §1

Sunitinib + Phenformin = compound: CCN(CC)CCNC(=O)c1c(C)[nH]c(/C=C2\C(=O)Nc3ccc(F)cc32)c1C [Sunitinib] + N=C(N)NC(=N)NCCc1ccccc1 [Phenformin] (partner 250 µM)
Summary of the method: as §1

Sunitinib + Navitoclax = compound: CCN(CC)CCNC(=O)c1c(C)[nH]c(/C=C2\C(=O)Nc3ccc(F)cc32)c1C [Sunitinib] + CC1(C)CCC(c2ccc(Cl)cc2)=C(CN2CCN(c3ccc(C(=O)NS(=O)(=O)c4ccc(N[C@H](CCN5CCOCC5)CSc5ccccc5)c(S(=O)(=O)C(F)(F)F)c4)cc3)CC2)C1 [Navitoclax] (partner 0.5 µM)
Summary of the method: as §1

Sunitinib + Linsitinib = compound: CCN(CC)CCNC(=O)c1c(C)[nH]c(/C=C2\C(=O)Nc3ccc(F)cc32)c1C [Sunitinib] + C[C@]1(O)C[C@@H](c2nc(-c3ccc4ccc(-c5ccccc5)nc4c3)c3c(N)nccn32)C1 [Linsitinib] (partner 1 µM)
Summary of the method: as §1

Sunitinib + Decitabine = compound: CCN(CC)CCNC(=O)c1c(C)[nH]c(/C=C2\C(=O)Nc3ccc(F)cc32)c1C [Sunitinib] + Nc1ncn([C@H]2C[C@H](O)[C@@H](CO)O2)c(=O)n1 [Decitabine] (partner 2 µM)
Summary of the method: as §1

Sunitinib + Alpelisib = compound: CCN(CC)CCNC(=O)c1c(C)[nH]c(/C=C2\C(=O)Nc3ccc(F)cc32)c1C [Sunitinib] + Cc1nc(NC(=O)N2CCC[C@H]2C(N)=O)sc1-c1ccnc(C(C)(C)C(F)(F)F)c1 [Alpelisib] (partner 2 µM)
Summary of the method: as §1

Sunitinib + Pictilisib = compound: CCN(CC)CCNC(=O)c1c(C)[nH]c(/C=C2\C(=O)Nc3ccc(F)cc32)c1C [Sunitinib] + CS(=O)(=O)N1CCN(Cc2cc3nc(-c4cccc5[nH]ncc45)nc(N4CCOCC4)c3s2)CC1 [Pictilisib] (partner 1 µM)
Summary of the method: as §1

## A549
Sunitinib; 0.02 µM
  relative viability: 0.945
Sunitinib; 0.06325 µM
  relative viability: 1.1
Sunitinib; 0.2 µM
  relative viability: 1.23
Sunitinib; 0.6325 µM
  relative viability: 1.06
Sunitinib; 2 µM
  relative viability: 0.972
Sunitinib + Olaparib; first compound 0.02 µM
  relative viability: 0.282
Sunitinib + Olaparib; first compound 0.06325 µM
  relative viability: 0.326
Sunitinib + Olaparib; first compound 0.2 µM
  relative viability: 0.348
Sunitinib + Olaparib; first compound 0.6325 µM
  relative viability: 0.484
Sunitinib + Olaparib; first compound 2 µM
  relative viability: 0.383
Sunitinib + Lapatinib; first compound 0.02 µM
  relative viability: 1.03
Sunitinib + Lapatinib; first compound 0.2 µM
  relative viability: 1.21
Sunitinib + Lapatinib; first compound 0.6325 µM
  relative viability: 1.03
Sunitinib + Foretinib; first compound 0.02 µM
  relative viability: 1.06
Sunitinib + Foretinib; first compound 0.06325 µM
  relative viability: 0.951
Sunitinib + Foretinib; first compound 0.2 µM
  relative viability: 1.09
Sunitinib + Foretinib; first compound 0.6325 µM
  relative viability: 1.05
Sunitinib + Foretinib; first compound 2 µM
  relative viability: 0.974
Sunitinib + Crizotinib; first compound 0.02 µM
  relative viability: 0.722
Sunitinib + Crizotinib; first compound 0.06325 µM
  relative viability: 0.816
Sunitinib + Crizotinib; first compound 0.6325 µM
  relative viability: 0.906
Sunitinib + Crizotinib; first compound 2 µM
  relative viability: 0.711
Sunitinib + Phenformin; first compound 0.02 µM
  relative viability: 0.166
Sunitinib + Phenformin; first compound 0.06325 µM
  relative viability: 0.214
Sunitinib + Phenformin; first compound 0.2 µM
  relative viability: 0.148
Sunitinib + Phenformin; first compound 0.6325 µM
  relative viability: 0.126
Sunitinib + Phenformin; first compound 2 µM
  relative viability: 0.155
Sunitinib + Navitoclax; first compound 0.02 µM
  relative viability: 1.16
Sunitinib + Navitoclax; first compound 0.06325 µM
  relative viability: 1.3
Sunitinib + Navitoclax; first compound 0.2 µM
  relative viability: 1.36
Sunitinib + Navitoclax; first compound 2 µM
  relative viability: 1.07
Sunitinib + Linsitinib; first compound 0.02 µM
  relative viability: 0.563
Sunitinib + Linsitinib; first compound 0.06325 µM
  relative viability: 0.638
Sunitinib + Linsitinib; first compound 0.2 µM
  relative viability: 0.669
Sunitinib + Linsitinib; first compound 0.6325 µM
  relative viability: 0.716
Sunitinib + Linsitinib; first compound 2 µM
  relative viability: 0.579
Sunitinib + Decitabine; first compound 0.02 µM
  relative viability: 0.248
Sunitinib + Decitabine; first compound 0.06325 µM
  relative viability: 0.293
Sunitinib + Decitabine; first compound 0.2 µM
  relative viability: 0.252
Sunitinib + Decitabine; first compound 0.6325 µM
  relative viability: 0.272
Sunitinib + Decitabine; first compound 2 µM
  relative viability: 0.306
Sunitinib + Alpelisib; first compound 0.02 µM
  relative viability: 0.686
Sunitinib + Alpelisib; first compound 0.06325 µM
  relative viability: 0.825
Sunitinib + Alpelisib; first compound 0.2 µM
  relative viability: 0.884
Sunitinib + Alpelisib; first compound 0.6325 µM
  relative viability: 0.872
Sunitinib + Alpelisib; first compound 2 µM
  relative viability: 0.776
Sunitinib + Pictilisib; first compound 0.02 µM
  relative viability: 0.457
Sunitinib + Pictilisib; first compound 0.06325 µM
  relative viability: 0.546
Sunitinib + Pictilisib; first compound 0.2 µM
  relative viability: 0.589
Sunitinib + Pictilisib; first compound 0.6325 µM
  relative viability: 0.631
Sunitinib + Pictilisib; first compound 2 µM
  relative viability: 0.412

From the supplement of paper PMC10307832
